In US8192962B2, “Processes for detecting toxic substances” (Daikin Industries, Ltd., priority 2001, dated 2012):

System: Detoxification protein genes
Assay: DNA chip mRNA expression in yeast, detoxification protein genes (Table 8)
Format: cell-based, Saccharomyces cerevisiae S288C
How it was run: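 Cells were grown at 25° C. in YPD, treated at logarithmic phase for 2 h with a chemical at a concentration inhibiting growth but not causing death, and compared with untreated cultures. Labeled cDNA was hybridized to a DNA chip carrying all yeast genes, and the expression ratio was taken from scanner fluorescence.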

## Oc1cc(Cl)c(Cl)cc1Cl [(6), 2,4,5-trichlorophenol]
Yeast gene YBL064C
  The level of expressed mRNA in the presence of chemical substance/The level of expressed mRNA in the absence of chemical substance: 5.2
Yeast gene YBR008C
  The level of expressed mRNA in the presence of chemical substance/The level of expressed mRNA in the absence of chemical substance: 1.0
Yeast gene YBR145W
  The level of expressed mRNA in the presence of chemical substance/The level of expressed mRNA in the absence of chemical substance: 11.5
Yeast gene YBR244W
  The level of expressed mRNA in the presence of chemical substance/The level of expressed mRNA in the absence of chemical substance: 1.0
Yeast gene YBR293W
  The level of expressed mRNA in the presence of chemical substance/The level of expressed mRNA in the absence of chemical substance: 0.9
Yeast gene YCL035C
  The level of expressed mRNA in the presence of chemical substance/The level of expressed mRNA in the absence of chemical substance: 5.1
Yeast gene YCR083W
  The level of expressed mRNA in the presence of chemical substance/The level of expressed mRNA in the absence of chemical substance: 2.4
Yeast gene YDL100C
  The level of expressed mRNA in the presence of chemical substance/The level of expressed mRNA in the absence of chemical substance: 2.1
Yeast gene YDL168W
  The level of expressed mRNA in the presence of chemical substance/The level of expressed mRNA in the absence of chemical substance: 1.4
Yeast gene YDR256C
  The level of expressed mRNA in the presence of chemical substance/The level of expressed mRNA in the absence of chemical substance: 0.5
Yeast gene YDR453C
  The level of expressed mRNA in the presence of chemical substance/The level of expressed mRNA in the absence of chemical substance: 1.7
Yeast gene YDR513W
  The level of expressed mRNA in the presence of chemical substance/The level of expressed mRNA in the absence of chemical substance: 2.1
Yeast gene YDR538W
  The level of expressed mRNA in the presence of chemical substance/The level of expressed mRNA in the absence of chemical substance: 1.0
Yeast gene YEL027W
  The level of expressed mRNA in the presence of chemical substance/The level of expressed mRNA in the absence of chemical substance: 1.1
Yeast gene YEL065W
  The level of expressed mRNA in the presence of chemical substance/The level of expressed mRNA in the absence of chemical substance: 2.3
Yeast gene YER185W
  The level of expressed mRNA in the presence of chemical substance/The level of expressed mRNA in the absence of chemical substance: 1.2
Yeast gene YFL050C
  The level of expressed mRNA in the presence of chemical substance/The level of expressed mRNA in the absence of chemical substance: 0.9
Yeast gene YGL013C
  The level of expressed mRNA in the presence of chemical substance/The level of expressed mRNA in the absence of chemical substance: 2.3
Yeast gene YGL254W
  The level of expressed mRNA in the presence of chemical substance/The level of expressed mRNA in the absence of chemical substance: 0.7
Yeast gene YGR088W
  The level of expressed mRNA in the presence of chemical substance/The level of expressed mRNA in the absence of chemical substance: 1.3
Yeast gene YGR138C
  The level of expressed mRNA in the presence of chemical substance/The level of expressed mRNA in the absence of chemical substance: 0.8
Yeast gene YGR197C
  The level of expressed mRNA in the presence of chemical substance/The level of expressed mRNA in the absence of chemical substance: 0.5
Yeast gene YGR209C
  The level of expressed mRNA in the presence of chemical substance/The level of expressed mRNA in the absence of chemical substance: 1.9
Yeast gene YGR224W
  The level of expressed mRNA in the presence of chemical substance/The level of expressed mRNA in the absence of chemical substance: 0.8
Yeast gene YHL040C
  The level of expressed mRNA in the presence of chemical substance/The level of expressed mRNA in the absence of chemical substance: 7.3
Yeast gene YHL047C
  The level of expressed mRNA in the presence of chemical substance/The level of expressed mRNA in the absence of chemical substance: 8.4
Yeast gene YHR008C
  The level of expressed mRNA in the presence of chemical substance/The level of expressed mRNA in the absence of chemical substance: 1.0
Yeast gene YHR048W
  The level of expressed mRNA in the presence of chemical substance/The level of expressed mRNA in the absence of chemical substance: 0.8
Yeast gene YHR053C
  The level of expressed mRNA in the presence of chemical substance/The level of expressed mRNA in the absence of chemical substance: 1.3
Yeast gene YHR055C
  The level of expressed mRNA in the presence of chemical substance/The level of expressed mRNA in the absence of chemical substance: 1.6
Yeast gene YIR002C
  The level of expressed mRNA in the presence of chemical substance/The level of expressed mRNA in the absence of chemical substance: 2.2
Yeast gene YIR038C
  The level of expressed mRNA in the presence of chemical substance/The level of expressed mRNA in the absence of chemical substance: 2.5
Yeast gene YJL101C
  The level of expressed mRNA in the presence of chemical substance/The level of expressed mRNA in the absence of chemical substance: 1.0
Yeast gene YJR104C
  The level of expressed mRNA in the presence of chemical substance/The level of expressed mRNA in the absence of chemical substance: 1.4
Yeast gene YKL026C
  The level of expressed mRNA in the presence of chemical substance/The level of expressed mRNA in the absence of chemical substance: 1.8
Yeast gene YKL064W
  The level of expressed mRNA in the presence of chemical substance/The level of expressed mRNA in the absence of chemical substance: 1.5
Yeast gene YKR066C
  The level of expressed mRNA in the presence of chemical substance/The level of expressed mRNA in the absence of chemical substance: 0.9
Yeast gene YKR105C
  The level of expressed mRNA in the presence of chemical substance/The level of expressed mRNA in the absence of chemical substance: 1.2
Yeast gene YKR106W
  The level of expressed mRNA in the presence of chemical substance/The level of expressed mRNA in the absence of chemical substance: 1.6
Yeast gene YLL028W
  The level of expressed mRNA in the presence of chemical substance/The level of expressed mRNA in the absence of chemical substance: 1.7
Yeast gene YLL057C
  The level of expressed mRNA in the presence of chemical substance/The level of expressed mRNA in the absence of chemical substance: 1.0
Yeast gene YLL060C
  The level of expressed mRNA in the presence of chemical substance/The level of expressed mRNA in the absence of chemical substance: 1.4
Yeast gene YLR043C
  The level of expressed mRNA in the presence of chemical substance/The level of expressed mRNA in the absence of chemical substance: 1.4
Yeast gene YLR046C
  The level of expressed mRNA in the presence of chemical substance/The level of expressed mRNA in the absence of chemical substance: 3.8
Yeast gene YML028W
  The level of expressed mRNA in the presence of chemical substance/The level of expressed mRNA in the absence of chemical substance: 1.2
Yeast gene YML116W
  The level of expressed mRNA in the presence of chemical substance/The level of expressed mRNA in the absence of chemical substance: 0.9
Yeast gene YMR015C
  The level of expressed mRNA in the presence of chemical substance/The level of expressed mRNA in the absence of chemical substance: 1.3
Yeast gene YMR038C
  The level of expressed mRNA in the presence of chemical substance/The level of expressed mRNA in the absence of chemical substance: 1.0
Yeast gene YNL239W
  The level of expressed mRNA in the presence of chemical substance/The level of expressed mRNA in the absence of chemical substance: 1.8
Yeast gene YNL241C
  The level of expressed mRNA in the presence of chemical substance/The level of expressed mRNA in the absence of chemical substance: 0.9
Yeast gene YNL259C
  The level of expressed mRNA in the presence of chemical substance/The level of expressed mRNA in the absence of chemical substance: 3.9
Yeast gene YOL158C
  The level of expressed mRNA in the presence of chemical substance/The level of expressed mRNA in the absence of chemical substance: 2.0
Yeast gene YOR031W
  The level of expressed mRNA in the presence of chemical substance/The level of expressed mRNA in the absence of chemical substance: 0.9
Yeast gene YOR153W
  The level of expressed mRNA in the presence of chemical substance/The level of expressed mRNA in the absence of chemical substance: 7.4
Yeast gene YOR247W
  The level of expressed mRNA in the presence of chemical substance/The level of expressed mRNA in the absence of chemical substance: 0.2
Yeast gene YOR251C
  The level of expressed mRNA in the presence of chemical substance/The level of expressed mRNA in the absence of chemical substance: 0.9
Yeast gene YOR273C
  The level of expressed mRNA in the presence of chemical substance/The level of expressed mRNA in the absence of chemical substance: 0.4
Yeast gene YPL163C
  The level of expressed mRNA in the presence of chemical substance/The level of expressed mRNA in the absence of chemical substance: 0.6
Yeast gene YPR200C
  The level of expressed mRNA in the presence of chemical substance/The level of expressed mRNA in the absence of chemical substance: 0.8
